Source: ChEMBL document CHEMBL1136472, “3-iodo-4-phenoxypyridinones (IOPY's), a new family of highly potent non-nucleoside inhibitors of HIV-1 reverse transcriptase” (Bioorg Med Chem Lett, 2003)

Legend:
[1] = system: MT4; experiment: Anti-HIV-1 activity against LAI strain in MT-4 cells.; format: functional, cell-based; conditions: Homo sapiens
[2] = system: MT4; experiment: Anti-HIV-1 activity against K103N strain in MT-4 cells by the MTT method; format: functional, cell-based; conditions: Homo sapiens
[3] = system: MT4; experiment: Anti-HIV-1 activity against LAI strain in MT-4 cells by the MTT method; format: functional, cell-based; conditions: Homo sapiens
[4] = system: MT4; experiment: Anti-HIV-1 activity against Y181C strain, in MT-4 cells by the MTT method; format: functional, cell-based; conditions: Homo sapiens
[5] = Selectivity index is the ratio of 50% cytotoxic concentration to IC50 against LAI strain in MT-4 cells by the MTT method was determined; format: functional, MT4
[6] = system: MT4; experiment: Anti-HIV-1 activity against […] strain was determined in MT-4 cells by the MTT method; format: functional, cell-based; conditions: Homo sapiens
[7] = system: MT4; experiment: Anti-HIV-1 activity against K103N+[…] strain was determined in MT-4 cells by the MTT method; format: functional, cell-based; conditions: Homo sapiens
[8] = system: MT4; experiment: Anti-HIV-1 activity against K103N+Y181C strain was determined in MT-4 cells by the MTT method; format: functional, cell-based; conditions: Homo sapiens
[9] = system: MT4; experiment: Anti-HIV-1 activity against Y188L strain was determined in MT-4 cells by the MTT method; format: functional, cell-based; conditions: Homo sapiens

Row | Structure (SMILES) | IC50 [1] [nM] | IC50 [2] [nM] | IC50 [3] [nM] | IC50 [4] [nM] | SI [5] | IC50 [6] [nM] | IC50 [7] [nM] | IC50 [8] [nM] | IC50 [9] [nM]
1 | O=c1[nH]c(=O)n(COCCO)c(Sc2ccccc2)c1I | 3600 | – | – | – | – | – | – | – | –
2 | CCc1c(C)nc(O)c(I)c1Oc1cccc(C)c1 | – | 32 | 1.6 | 51 | 19900 | – | – | – | –
3 | CCc1c(C)nc(O)c(N(C)C)c1Oc1cc(C)cc(C)c1 | – | 50 | 4 | 158 | 25000 | – | – | – | –
4 | CCc1c(C)nc(O)c(I)c1Oc1ccccc1 | – | 40 | 1.6 | 316 | 63000 | – | – | – | –
5 | CCc1c(Oc2cc(C)cc(C)c2)cc(=O)[nH]c1C | – | – | 500 | – | 200 | – | – | – | –
6 | CCc1c(C)[nH]c(=O)c(I)c1Oc1cc(C)cc(C)c1 | – | 3 | 1.3 | 20 | 9000 | 6 | 20 | 40 | 45
7 | CCOCn1c(Cc2cc(C)cc(C)c2)c(C(C)C)c(=O)[nH]c1=O | – | 40 | 1 | 180 | 52000 | – | – | – | –
8 | CCc1c(C)[nH]c(=O)c(N(C)C)c1Cc1cc(C)cc(C)c1 | – | 32 | 8 | 100 | 12500 | 50 | – | 800 | 300
9 | CCc1c(C)nc(O)c([N+](=O)[O-])c1Oc1cc(C)cc(C)c1 | – | 100 | 4 | 158 | 2500 | – | – | – | –
10 | CC(C)Nc1cccnc1N1CCN(C(=O)c2cc3cc(NS(C)(=O)=O)ccc3[nH]2)CC1 [DELAVIRDINE] | – | – | – | – | – | 1900 | > 10000 | > 10000 | –
11 | O=C1Nc2ccc(Cl)cc2[C@@](C#CC2CC2)(C(F)(F)F)O1 [EFAVIRENZ] | – | 40 | 1 | 40 | – | 2 | > 10000 | 40 | 200
12 | CCOCn1c(Cc2ccccc2)c(C(C)C)c(=O)[nH]c1=O [EMIVIRINE] | – | 32 | 8 | 100 | 12500 | – | – | – | –
